Measurements published in patent US20200239530A1, “COMPOUNDS AND METHODS OF MODULATING PROTEIN DEGRADATION” (Vividion Therapeutics, Inc., priority 2017, published 2020).

Experiments:
Assay in all cases: Competitive cysteine profiling of cell lysate with desthiobiotin iodoacetamide probe (96-well sample prep)
Type in all cases: binding
[1] = target: T1, cysteine residue illustrated in Table 1A or Table 2A (Homo sapiens, UniProt A6NGE4); details: UniProt A6NGE4; 500 uM
T1 construct: Cells were resuspended in cold PBS on ice and sonicated with a probe sonicator to achieve lysis; endogenous in cells
Experimental: (§1) In some embodiments, the solution sample (e.g., cell sample, cell lysate sample, or comprising isolated proteins) is incubated with a compound of Formula (I) for analysis of protein-probe interactions. In some instances, the solution sample (e.g., cell sample, cell lysate sample, or comprising isolated proteins) is further incubated in the presence of an additional compound probe prior to addition of the compound of Formula (I). […] In such instances, the solution sample is incubated with a probe and a ligand for competitive protein profiling analysis.
(§2) The following 96-well sample prep protocol was used for sample preparation.
(§3) Cells were resuspended in cold PBS on ice and sonicated with a probe sonicator to achieve lysis. 200 μL of lysate containing 5 mg/ml proteome was treated with 2 μL of 100× compound stock in a 2-mL deep-well plate. The treated lysate was subsequently incubate at 25° C. for 1 hr with shaking at 600 rpm. The treated lysate was further incubated with 2 μL of 10 mM desthiobiotin iodoacetamide probe at 25° C. for 1 hr with shaking at 600 rpm. Next, the lysate was further treat with 20 μL of solution of PBS containing 11 mM MgSO4 and 2.5% Turbonuclease stock and incubated at 25° C. for 20 minutes with shaking at 600 rpm. 1.7 mL ice-cold acetone was added to each well and incubated at −20° C. for 2 hr, followed by max speed (4200 rpm) spin for 45 min. Acetone was then decanted and the plates were blotted to remove acetone. The plates were then dried in open air for 20 minutes. After drying, the plates were then covered with foil seal and stored at −80° C. overnight.
(§4) The next day, samples were re-suspended in 90 μL of solution of 9M urea, 50 mM ammonium bicarbonate and 10 mM DTT by incubating at 65C for 20 min with shaking at 1500 rpm. Next, samples were cooled to 37° C. and then 10 μL of 500 mM iodoacetamide solution (92.48 mg/ml) was added. The samples were then incubated at 37° C. for 30 min with shaking at 600 rpm.
(§5) ZEBA desalting plates were equilibrated 4 times using 250 μL of 2M urea, 50 mM ammonium bicarbonate solution followed by centrifugation at 1500 rpm for 2 minutes. After equilibration was complete, samples were applied to ZEBA desalting plate and spin at 1500 rpm for 2 min on top of 1 mL 96-well deep-well collection plate to buffer exchange samples. 4 μL of solution containing 25 mM CaCl2 and 0.25 mg/mL trypsin was added to the plate and the plate was then incubated at 37° C. for 2 hrs with shaking at 600 rpm. 300 μL of solution containing 5% high-capacity streptavidin agarose slurry in 25 mM Tris-HCl pH 7.5, 150 mM NaCl, and 0.1% NP-40 then added. The plate was incubated at 25° C. for 2 hrs with shaking at 600 rpm. Samples were transferred to 25 μm filter plate and spin at 1000 rpm for 2 min. Samples were then washed 3 times with 0.75 mL of wash buffer (25 mM Tris-HCl pH 7.5, 150 mM NaCl, and 0.1% NP-40) followed by washing 3 times with 0.75 mL PBS, and then 4 times with 0.75 mL water. After the washing step, samples were eluted into polypropylene 96-well plate by addition of 250 µL of 50% MeCN/water, 0.1% formic acid and allowed to gravity drip for 10 min, followed by centrifugation at 1000 rpm for 2 min. Speedvac was used to dry the plates at about 45° C. for […]. Then the plates were covered with foil seal and stored at −20° C.
(§6) Samples were resuspended by addition of 20 μl of 12.5% ACN, 0.1% formic acid solution, covered with foil seal, and incubated at 42° C. for 10 minutes with shaking at 600 rpm. Then add 30 μL of 0.1% formic acid solution was added and the plate was covered and incubated at 42° C. for 10 minutes with shaking at 600 rpm. Seal plate was then sealed with a 96-well silicon mat for analysis.

[2] = target: T2, cysteine residue illustrated in Table 1A or Table 2A (Homo sapiens, UniProt O95628); details: UniProt O95628; 100 uM
T2 construct: endogenous in cells
T2 sequence (O95628 1-575): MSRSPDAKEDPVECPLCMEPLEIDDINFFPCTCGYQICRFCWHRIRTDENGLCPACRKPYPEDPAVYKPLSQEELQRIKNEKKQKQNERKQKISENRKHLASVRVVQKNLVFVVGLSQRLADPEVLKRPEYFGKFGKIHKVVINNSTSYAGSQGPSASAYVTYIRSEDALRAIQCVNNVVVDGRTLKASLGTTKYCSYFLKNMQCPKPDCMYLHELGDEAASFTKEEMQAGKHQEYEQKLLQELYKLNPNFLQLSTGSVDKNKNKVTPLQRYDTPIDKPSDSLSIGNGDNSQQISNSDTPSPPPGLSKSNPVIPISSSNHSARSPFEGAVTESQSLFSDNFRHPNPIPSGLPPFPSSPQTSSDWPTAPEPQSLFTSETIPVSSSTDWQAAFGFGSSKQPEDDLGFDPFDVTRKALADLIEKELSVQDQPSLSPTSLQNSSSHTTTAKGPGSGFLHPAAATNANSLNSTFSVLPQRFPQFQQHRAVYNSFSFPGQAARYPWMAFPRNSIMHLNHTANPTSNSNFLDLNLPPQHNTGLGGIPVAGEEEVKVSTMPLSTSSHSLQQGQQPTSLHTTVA
Experimental: as §1, §2, §3, §4, §5, §6

[3] = target: T3, cysteine residue illustrated in Table 1A or Table 2A (Homo sapiens, UniProt Q5H9S7); details: UniProt Q5H9S7; 100 uM
T3 construct: Cells were resuspended in cold PBS on ice and sonicated with a probe sonicator to achieve lysis; endogenous in cells
T3 sequence (Q5H9S7 1-520): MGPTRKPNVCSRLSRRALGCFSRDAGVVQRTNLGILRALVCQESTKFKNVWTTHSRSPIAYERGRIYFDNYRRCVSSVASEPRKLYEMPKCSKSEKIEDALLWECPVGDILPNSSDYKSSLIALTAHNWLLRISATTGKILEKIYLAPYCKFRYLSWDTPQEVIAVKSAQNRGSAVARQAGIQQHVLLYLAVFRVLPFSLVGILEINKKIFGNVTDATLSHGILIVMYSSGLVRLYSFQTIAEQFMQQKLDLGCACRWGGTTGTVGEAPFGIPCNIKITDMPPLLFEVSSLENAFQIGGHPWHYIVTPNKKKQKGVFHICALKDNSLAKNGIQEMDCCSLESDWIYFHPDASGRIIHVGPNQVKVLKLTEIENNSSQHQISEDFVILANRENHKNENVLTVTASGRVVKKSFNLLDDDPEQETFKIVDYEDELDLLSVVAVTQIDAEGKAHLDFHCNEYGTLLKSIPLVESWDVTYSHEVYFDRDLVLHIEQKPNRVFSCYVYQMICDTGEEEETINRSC
Experimental: as §1, §2, §3, §4, §5, §6

T1 sequence (A6NGE4 whole entry): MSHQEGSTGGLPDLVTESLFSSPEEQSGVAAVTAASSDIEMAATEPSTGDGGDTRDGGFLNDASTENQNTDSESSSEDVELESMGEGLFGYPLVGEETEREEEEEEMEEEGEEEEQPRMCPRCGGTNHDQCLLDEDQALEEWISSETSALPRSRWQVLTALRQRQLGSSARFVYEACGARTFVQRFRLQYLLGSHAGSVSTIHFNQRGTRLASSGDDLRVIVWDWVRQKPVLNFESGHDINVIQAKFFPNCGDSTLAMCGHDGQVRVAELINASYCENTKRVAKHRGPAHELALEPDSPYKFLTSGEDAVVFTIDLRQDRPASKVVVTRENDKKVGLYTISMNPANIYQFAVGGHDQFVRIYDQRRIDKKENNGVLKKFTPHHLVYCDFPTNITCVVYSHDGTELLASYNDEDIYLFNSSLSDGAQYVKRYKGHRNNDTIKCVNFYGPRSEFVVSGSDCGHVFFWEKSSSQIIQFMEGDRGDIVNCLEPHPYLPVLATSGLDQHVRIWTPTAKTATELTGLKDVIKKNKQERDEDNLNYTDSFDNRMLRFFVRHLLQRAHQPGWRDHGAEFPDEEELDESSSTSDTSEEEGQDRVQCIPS

For `COc1ccc2c(c1)CCCN2C(=O)CCl` [KB02], the “KB02_500 uM_percent_inhibition” value [1] was 55%, the “KB02_100 uM_percent_inhibition” value [2] was 6% and the “KB02_100 uM_percent_inhibition” value [3] was 69%.

In the case of `C=CC(=O)N(c1ccccc1)c1ccc(Br)cc1` [KB05], the “KB05_500 uM_percent_inhibition” value [1] is reported as 63%, the “KB05_100 uM_percent_inhibition” value [2] is reported as 94% and the “KB05_100 uM_percent_inhibition” value [3] is reported as 54%.

`O=C(CCl)Nc1cc(C(F)(F)F)cc(C(F)(F)F)c1` [KBO3] was tested, and the “KB03_500 uM_percent_inhibition” value [1] was 41%, the “KB03_100 uM_percent_inhibition” value [2] was 13% and the “KB03_100 uM_percent_inhibition” value [3] was 39%.
